Experimental data reported in patent US9505736B2, “Histone deacetylase inhibitors and compositions and methods of use thereof” (CHDI Foundation, Inc., priority 2012, dated 2016).

Tests used:
[1] = test system: cellular histone deacetylase enzymatic activity in Jurkat E6-1 cells; assay: Inhibition of cellular HDAC activity in Jurkat E6-1 cells, Class IIa selective substrate Boc-Lys(Tfa)-AMC; assay type: cell-based; conditions: Homo sapiens
Experimental: Analysis of Inhibition of Cellular HDAC Activity with Class IIa Histone Deacetylase (HDAC) Inhibitors
After penetration in Jurkat E6-1 cells, the substrate is deacetylated to Boc-Lys-AMC. After cell lysis and cleavage by trypsin, the fluorophore AMC is released from the deacetylated substrate only. The fluoresence of the sample is directly related to the histone deacetylase activity in the sample.
Jurkat E6.1 Cell Culture and Plating.
Jurkat E6.1 cells are cultured according to standard cell culture protocols in Jurkat E6.1 Growth Media (RPMI without phenol red, 10% FBS, 10 mM HEPES, and 1 mM Sodium Pyruvate). Jurkat E6.1 cells are counted using a Coulter Counter and resuspended in Jurkat E6.1 growth media at a concentration of 75,000 cells/35 μl. 35 μl or 75,000 cells is seeded into Greiner microtitre assay plates. The plates are then incubated at 37° C. and 5% CO2 while other assay components are being prepared.
(§1) Serially Dilute HDAC Inhibitor Compounds.
(§2) Stocks of 70 μl aliquots of the 10 mM compound in DMSO are prepared and stored at −20° C. From one stock aliquot of each compound to be tested and the reference compound, a 16-point serial dilution is prepared according to Table 1 using a 125 μl 16-channel Matrix multi-channel pipette.
2 μl (200×) of each diluted solution and each control (full activity: 100% DMSO alone or full inhibition 1 mM) is stamped into V-bottom polypropylene 384-well compound plates using either the Bravo, Janus, or 12.5 μl 16-channel Matrix multi-channel pipette. Each well with the 200× compound solution is diluted 1:20 by the addition of 38 μl Jurkat assay buffer+DMSO (9.5% DMSO, RPMI without phenol red, 0.09% FBS, 9 mM Hepes, and 0.9 mM Sodium Pyruvate equilibrated to room temperature)
Prepare 5× (500 μM) Boc-Lys(Tfa)-AMC Substrate.
5× (500 μM) substrate is prepared just prior to the addition to the assay. The 5× substrate is prepared by diluting a 100 mM Boc-Lys(Tfa)-AMC in DMSO solution 1:200 by adding it drop-wise to Jurkat assay medium (RPMI without phenol red, 0.1% FBS, 10 mM Hepes, and 1 mM Sodium Pyruvate equilibrated to 37° C.) while vortexing at slow speed to prevent precipitation.
10 ml of 3× lysis buffer is prepared with 8.8 ml of 3× stock lysis buffer (50 mM Tris-HCl, pH 8.0, 137 mM NaCl, 2.7 mM KCl, 1 mM MgCl2, 1% Nonidet P40 Substitute equilibrated to room temperature) and 1.2 ml of 3 mg/ml Trypsin equilibrated to room temperature.
5 μl of each solution of 1:20 diluted compound from above is transferred to the Greiner microtitre assay plates with 75,000 cells/well using the Bravo. Cells are then incubated for 2 hours at 37° C. and 5% CO2. The assay is then started by adding 10 μl of 5× (500 μM) substrate to the assay plate using either the Bravo or 16-channel Matrix multi-channel pipette. The cells are then incubated for 3 hours at 37° C. and 5% CO2. Next, 25 μl of 3× lysis buffer is added to each well using either the 125 μl 16 channel pipette or the Bravo. The assay plate is then incubated overnight (15-16 hours) at 37° C. and 5% CO2. The following day, the plates are shaken on an orbital shaker for 1 minute at 900 rpm. Finally the top read fluorescence (Excitation: 355 nm, Emission: 460 nm) is measured using PerkinElmer EnVision.

[2] = target: human catalytic domain HDAC4 protein (Homo sapiens, UniProt P56524, A743G/DEL730-739/DEL742-742); assay: Inhibition of HDAC4 catalytic domain enzymatic activity, Boc-Lys(Tfa)-AMC substrate, fluorescence; conditions: read-out: Biochemical HDAC-4 IC50
Chain of human catalytic domain HDAC4 protein (P56524 with tags, fused parts or gaps A743G/DEL730-739/DEL742-742): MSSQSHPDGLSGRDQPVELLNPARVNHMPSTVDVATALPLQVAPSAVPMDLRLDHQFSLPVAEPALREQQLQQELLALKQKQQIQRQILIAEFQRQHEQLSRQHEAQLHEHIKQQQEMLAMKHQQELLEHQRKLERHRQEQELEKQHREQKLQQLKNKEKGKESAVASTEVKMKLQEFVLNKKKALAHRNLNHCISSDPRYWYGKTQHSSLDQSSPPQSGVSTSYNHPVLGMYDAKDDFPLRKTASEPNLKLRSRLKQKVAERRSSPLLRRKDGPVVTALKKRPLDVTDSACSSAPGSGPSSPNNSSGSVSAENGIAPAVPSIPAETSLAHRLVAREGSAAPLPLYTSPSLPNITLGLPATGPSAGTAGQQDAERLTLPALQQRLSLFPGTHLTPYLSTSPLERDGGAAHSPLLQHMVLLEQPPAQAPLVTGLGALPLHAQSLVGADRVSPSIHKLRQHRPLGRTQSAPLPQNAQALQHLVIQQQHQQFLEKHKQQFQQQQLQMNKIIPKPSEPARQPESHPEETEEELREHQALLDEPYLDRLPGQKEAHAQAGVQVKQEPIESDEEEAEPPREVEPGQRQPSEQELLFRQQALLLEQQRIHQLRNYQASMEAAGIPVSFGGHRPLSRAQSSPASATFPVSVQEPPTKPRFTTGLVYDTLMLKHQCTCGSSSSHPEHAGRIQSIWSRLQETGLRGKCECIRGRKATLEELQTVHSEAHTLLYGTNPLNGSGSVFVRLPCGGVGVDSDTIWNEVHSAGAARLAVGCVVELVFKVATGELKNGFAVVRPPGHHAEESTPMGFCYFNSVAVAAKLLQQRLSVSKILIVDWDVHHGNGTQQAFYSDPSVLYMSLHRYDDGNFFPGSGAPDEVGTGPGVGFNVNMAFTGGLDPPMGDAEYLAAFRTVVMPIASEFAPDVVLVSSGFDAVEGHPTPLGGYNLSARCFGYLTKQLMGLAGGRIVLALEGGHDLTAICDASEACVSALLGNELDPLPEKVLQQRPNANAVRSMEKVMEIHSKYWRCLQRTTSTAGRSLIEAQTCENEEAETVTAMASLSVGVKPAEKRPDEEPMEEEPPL
Experimental: Analysis of Inhibition of HDAC4 with Class IIa Histone Deacetylase (HDAC) Inhibitors
The substrate is deacetylated to Boc-Lys-AMC by HDAC4. Cleavage by trypsin results in the release of the fluorophore AMC from the deacetylated substrate. The fluorescence of the sample is directly related to the histone deacetylase activity in the sample.
as §1
as §2, with “60” for “70”, “pipette (Matrix Technologies Ltd).” for “pipette.”
2 μl (200×) of each diluted solution and each control (full activity: 100% DMSO alone or full inhibition 1 mM) is stamped into V-bottomed polypropylene 384-well compound plates using either the Bravo (384-well head from Agilent) or 12.5 μl 16-channel Matrix multi-channel pipette (Matrix Technologies Ltd).
Prepare HDAC4 Catalytic Domain Enzyme (0.86 μg/ml).
Prepare 5× (50 NM) Boc-Lys(Tfa)-AMC Substrate.
5× (50 μM) substrate is prepared just prior to the addition to the assay. A 1 mM substrate stock is made by diluting a 100 mM Boc-Lys(Tfa)-AMC in DMSO solution 1:100 by adding it drop-wise to assay buffer (equilibrated to room temperature) while vortexing at slow speed to prevent precipitation. The 5× substrate is prepared by diluting the 1 mM substrate solution 1:20 by adding it drop-wise to assay buffer (equilibrated to room temperature) while vortexing at slow speed to prevent precipitation.
Prepare 3× (30 NM) Developer/Stop Solution.
5 μl of each solution of 1:20 diluted compound from above is transferred to a clear bottomed, black, 384-well assay plate using the Bravo or the Janus (384-well MDT head from Perkin Elmer). Using a 16-channel Matrix multi-channel pipette, 35 μl of the working solution of HDAC4 catalytic domain enzyme (0.86 μg/ml in assay buffer) is transferred to the assay plate. The assay is then started by adding 10 μl of 5× (50 μM) substrate to the assay plates using either the Bravo, Janus or 16-channel Matrix multi-channel pipette. The assay plate is then shaken for two minutes on an orbital shaker at 900 rpm (rotations per minute). Next the plate is incubated for 15 minutes at 37° C. The reaction is stopped by adding 25 μl of 3× (30 μM) developer/stop solution to the assay plates using either the Bravo, Janus or a 16-channel Matrix multi-channel pipette. Assay plates are then shaken for 5 minutes on an orbital shaker at 1200 rpm. Next, the assay plates are incubated at 37° C. for 1 hour in a tissue culture incubator.

SMILES | IC50 [1] | IC50 [2]
O=C(NO)[C@@]1(F)[C@H](c2ccccc2)[C@H]1c1ccc(-c2cnc(C3CC3)o2)cc1 (racemic) [(1R*,2S*,3S*)-2-(4-(2-Cyclopropyloxazol-5-yl)phenyl)-1-fluoro-N-hydroxy-3-phenylcyclopropanecarboxamide] | 28000 nM | 4650 nM
Cc1cnc(-c2ccc([C@H]3[C@H](c4ccccc4)[C@]3(Cl)C(=O)NO)cc2)nc1 [(1R,2R,3R)-1-Chloro-N-hydroxy-2-(4-(5-methylpyrimidin-2-yl)phenyl)-3-phenylcyclopropanecarboxamide] | 15300 nM | –
O=C(NO)[C@@]1(F)[C@@H](c2ccccc2)[C@@H]1c1ccc(-c2ncc(F)cn2)cc1 [(1R,2R,3R)-1-Fluoro-2-(4-(5-fluoropyrimidin-2-yl)phenyl)-N-hydroxy-3-phenylcyclopropanecarboxamide] | 4500 nM | –
Cc1cnc(-c2ccc([C@H]3[C@H](c4ccccc4)[C@]3(F)C(=O)NO)cc2)nc1 [(1R,2R,3R)-1-Fluoro-N-hydroxy-2-(4-(5-methylpyrimidin-2-yl)phenyl)-3-phenylcyclopropanecarboxamide] | 8900 nM | –
O=C(NO)[C@@]1(F)[C@@H](c2ccccc2)[C@@H]1c1ccc(-c2nccc(C(F)(F)F)n2)cc1 [(1R,2R,3R)-1-Fluoro-N-hydroxy-2-phenyl-3-(4-(4-(trifluoromethyl)pyrimidin-2-yl)phenyl)cyclopropanecarboxamide] | > 50000 nM | –
O=C(NO)[C@@]1(F)[C@@H](c2ccccc2)[C@@H]1c1ccc(-c2ncc(OC(F)F)cn2)cc1 [(1R,2R,3R)-2-(4-(5-(Difluoromethoxy)pyrimidin-2-yl)phenyl)-1-fluoro-N-hydroxy-3-phenylcyclopropanecarboxamide] | > 50000 nM | –
O=C(NO)[C@]1(F)[C@H](c2ccccc2)[C@H]1c1cnc(-c2ccc(F)cc2)s1 [(1S,2R,3S)-1-Fluoro-2-(2-(4-fluorophenyl)thiazol-5-yl)-N-hydroxy-3-phenylcyclopropanecarboxamide] | 690 nM | 60 nM
Cc1cnc(-c2ccc([C@@H]3[C@@H](c4ccccc4)[C@@]3(F)C(=O)NO)cc2)nc1 [(1S,2S,3S)-1-Fluoro-N-hydroxy-2-(4-(5-methylpyrimidin-2-yl)phenyl)-3-phenylcyclopropanecarboxamide] | 120 nM | –
O=C(NO)[C@]1(F)[C@H](c2ccccc2)[C@H]1c1ccc(-c2nccc(C(F)(F)F)n2)cc1 [(1S,2S,3S)-1-Fluoro-N-hydroxy-2-phenyl-3-(4-(4-(trifluoromethyl)pyrimidin-2-yl)phenyl)cyclopropanecarboxamide] | 260 nM | –

Further lines, results first:

IC50 [1] | IC50 [2] | SMILES
> 50000 nM | > 50000 nM | O=C(NO)[C@@]1(F)[C@H](c2ccccc2)[C@H]1c1ccnc(C2CC2)c1 (racemic) [(1R*,2S*,3S*)-2-(2-Cyclopropylpyridin-4-yl)-1-fluoro-N-hydroxy-3-phenylcyclopropanecarboxamide]
40000 nM | 6470 nM | O=C(NO)[C@@]1(F)[C@H](c2ccccc2)[C@H]1c1cc(Cl)c2c(c1)OCCO2 (racemic) [(1R*,2S*,3S*)-2-(8-Chloro-2,3-dihydrobenzo[b][1,4]dioxin-6-yl)-1-fluoro-N-hydroxy-3-phenylcyclopropanecarboxamide]
310 nM | 20 nM | O=C(NO)[C@]1(F)[C@H](c2ccccc2)[C@H]1c1ccc(-c2cnc(C3CC3)o2)cc1 (racemic) [(1S*,2S*,3S*)-2-(4-(2-Cyclopropyloxazol-5-yl)phenyl)-1-fluoro-N-hydroxy-3-phenylcyclopropanecarboxamide]
870 nM | 60 nM | O=C(NO)[C@]1(F)[C@H](c2ccccc2)[C@H]1c1ccc(Br)cc1 (racemic) [(1S*,2S*,3S*)-2-(4-Bromophenyl)-1-fluoro-N-hydroxy-3-phenylcyclopropanecarboxamide]
220 nM | – | O=C(NO)[C@]1(F)[C@H](c2ccccc2)[C@H]1c1ccc(-c2ncc(OC(F)F)cn2)cc1 [(1S,2S,3S)-2-(4-(5-(Difluoromethoxy)pyrimidin-2-yl)phenyl)-1-fluoro-N-hydroxy-3-phenylcyclopropanecarboxamide]
